Assay results as given in patent publication US20180343865A1, “HERBICIDAL COMPOSITIONS COMPRISING ISOXAZOLO[5,4-B]PYRIDINES” (BASF SE, priority 2015, published 2018).

Columns and labels:
Format in all cases: in vivo
Kochia scoparia = test: Greenhouse postemergence herbicidal activity on KCHSC, 20 DAT; conditions: 25 gai/ha, 20 DAT
Method: (§1) For the post emergence treatment, the plants were first grown to the 2 leaf station (GS 12) and applied at GS 12-19 depending on the species. The herbicidal compositions were suspended or emulsified in water as distribution medium and sprayed using finely distributing nozzles.
(§2) The plants have been cultivated due to their individual requirements at 10 to 25° C. and. 20 to 35° C. The plants were irrigated due to their necessity.
(§3) The respective stated components A), were formulated as a 5% by weight strength emulsion concentrate containing wettol EM 31 20% and Cyclohexanone 80%. The respective stated components B), were formulated as either emulsifiable concentrates (EC), soluble liquids (SL), suspension concentrates (SC) or soluble granules (SG) as indicated in the table below. Component A, component B and the solvent system are introduced into the spray liquor used for applying the active compound. In the examples, the solvent used was water containing 1% Dash (Agnique ME 181 37.5%, Lutensit A-EP 22.5%, and Oleic Acid 5%) and 2% ammonium suflate.
(§4) In the following experiments, the herbicidal activity for the individual herbicide compounds (solo and mixture applications), the herbicidal succession was assessed 20 days after treatment (DAT). The evaluation for the damage on undesired weeds caused by the chemical compositions was carried out using a scale from 0 to 100%, compared to the untreated control plants. Here, 0 means no damage and 100 means complete destruction of the plants. The plants used in the greenhouse experiments belonged to the following species:
(§5) The value E, which corresponds to the effect (in %) that is to be expected if the activity of the individual compounds is additive, was calculated using the method of S. R. Colby (1967) “Calculating synergistic and antagonistic responses of herbicide combinations”, Weeds 15, p. 22 ff. Colby calculation for 2 way mixtures:
(§6) where: • X=effect in percent using herbicide A at an application rate a; • Y=effect in percent using herbicide B at an application rate b; • E=expected effect (in %) of A+B at application rates a+b
(§7) If the value observed in this manner is higher than the value E calculated according to Colby, a synergistic effect is present.

Conyza canadiensis = test: Greenhouse postemergence herbicidal activity on ERICA, 20 DAT
Method: as §1, §2, §3, §4, §5, §6, §7

Abutilon theoprasti = test: Greenhouse postemergence herbicidal activity on ABUTH, 20 DAT; conditions: for % activity, solo 2,4-D / % activity, solo MCPA: 20 DAT
Method: as §1, §2, §3, §4, §5, §6, §7

Ambrosia elatior = test: Greenhouse postemergence herbicidal activity on AMBEL, 20 DAT
Method: as §1, §2, §3, §4, §5, §6, §7

Ipomoea hederacea = test: Greenhouse postemergence herbicidal activity on IPOHE, 20 DAT; conditions: for % activity, solo 2,4-D / % activity, solo MCPA: 20 DAT
Method: as §1, §2, §3, §4, §5, §6, §7

Chenopodium album = test: Greenhouse postemergence herbicidal activity on CHEAL, 20 DAT
Method: as §1, §2, §3, §4, §5, §6, §7

Stellaria media = test: Greenhouse postemergence herbicidal activity on STEME, 20 DAT; conditions: for % activity, solo 2,4-D / % activity, solo MCPA: 20 DAT
Method: as §1, §2, §3, §4, §5, §6, §7

Polygonum persicaria = test: Greenhouse postemergence herbicidal activity on POLPE, 20 DAT; conditions: for % activity, solo 2,4-D / % activity, solo MCPA: postemergence, 20 DAT
Method: as §1, §2, §3, §4, §5, §6, §7

Polygonum convolvulus = test: Greenhouse postemergence herbicidal activity on POLCO, 20 DAT; conditions: for % activity, solo 2,4-D / % activity, solo MCPA: 20 DAT
Method: as §1, §2, §3, §4, §5, §6, §7

Polygonum aviculare = test: Greenhouse postemergence herbicidal activity on POLAV, 20 DAT
Method: as §1, §2, §3, §4, §5, §6, §7

Sinapis arvensis = test: Greenhouse postemergence herbicidal activity on SINAR, 20 DAT; conditions: 50 gai/ha
Method: as §1, §2, §3, §4, §5, §6, §7

Sorghum bicolor = test: Greenhouse postemergence herbicidal activity on SORVU, 20 DAT
Method: as §1, §2, §3, §4, §5, §6, §7

Matricaria chamomilla = test: Greenhouse postemergence herbicidal activity on MATCH, 20 DAT; conditions: for % activity, solo MCPA: 20 DAT
Method: as §1, §2, §3, §4, §5, §6, §7

Amaranthus retroflexus = test: Greenhouse postemergence herbicidal activity on AMARE, 20 DAT; conditions: for % activity, solo MCPA: 20 DAT
Method: as §1, §2, §3, §4, §5, §6, §7

CONAR = test: Greenhouse postemergence herbicidal activity on CONAR, 20 DAT; conditions: post-emergence, 62.5 gai/ha, read-out: % activity, solo application dicuran
APESV = test: Greenhouse postemergence herbicidal activity on APESV, 20 DAT; conditions: post-emergence, 62.5 gai/ha, read-out: % activity, solo application dicuran
AVEFA = test: Greenhouse postemergence herbicidal activity on AVEFA, 20 DAT; conditions: Avena fatua, post-emergence, 62.5 gai/ha, read-out: % activity, solo application dicuran
BROST = test: Greenhouse postemergence herbicidal activity on BROST, 20 DAT; conditions: post-emergence, 62.5 gai/ha, read-out: % activity, solo application dicuran
Setaria viridis = test: Greenhouse postemergence herbicidal activity on SETVI, 20 DAT; conditions: post-emergence, 62.5 gai/ha, read-out: % activity, solo application dicuran
Method: as §1, §2
The respective stated components A), were formulated as a 5% by weight strength emulsion concentrate containing wettol EM 31 20% and Cyclohexanone 80%. The respective stated components B), were formulated as either emulsifiable concentrates (EC), soluble liquids (SL), suspension concentrates (SC) or soluble granules (SG) as indicated in the table below. […]
In the following experiments, the herbicidal activity for the individual herbicide compounds (solo and mixture applications), the herbicidal succession was assessed 20 days after treatment (DAT). […]
The value E, which corresponds to the effect (in %) that is to be expected if the activity of the individual compounds is additive, was calculated using the method of S. R. Colby (1967) “Calculating synergistic and antagonistic responses of herbicide combinations”, Weeds 15, p. […]
as §7

ALOMY = test: Greenhouse postemergence herbicidal activity on ALOMY, 20 DAT; conditions: Alopecurus myosuroides, post-emergence, 62.5 gai/ha, read-out: % activity, solo application dicuran
Galium aparine = test: Greenhouse postemergence herbicidal activity on GALAP, 20 DAT; conditions: Galium aparine, post-emergence, 62.5 gai/ha, read-out: % activity, solo application dicuran
Method: as §1, §2, §3, §4, §5, §6, §7

DIGSA = test: Greenhouse postemergence herbicidal activity on DIGSA, 20 DAT; conditions: Digitaria sanguinalis, post-emergence, 62.5 gai/ha, read-out: % activity, solo application dicuran
[1] = STEME, 50 gai/ha, postemergence
[2] = STEME, 100 gai/ha, postemergence
[3] = POLCO, 50 gai/ha, postemergence
[4] = POLCO, 100 gai/ha, postemergence
[5] = Sorghum bicolor, post-emergence, 480 h, read-out: % activity, solo metsulfuron
[6] = Ambrosia artemisiifolia, post-emergence, 480 h, read-out: % activity, solo metsulfuron
[7] = Persicaria maculosa, post-emergence, 480 h, read-out: % activity, solo metsulfuron
[8] = Fallopia convolvulus, post-emergence, 480 h, read-out: % activity, solo metsulfuron

O=C(O)COc1ccc(Cl)cc1Cl [2,4-D]
% activity, solo 2,4-D (Kochia scoparia): 90%
% activity, solo 2,4-D (Conyza canadiensis; ERICA, 25 gai/ha, postemergence, 20 DAT): 60%
% activity, solo 2,4-D (Conyza canadiensis; ERICA, 100 gai/ha, postemergence, 20 DAT): 75%
% activity, solo 2,4-D (Abutilon theoprasti; 25 gai/ha): 50%
% activity, solo 2,4-D (Abutilon theoprasti; 50 gai/ha): 80%
% activity, solo 2,4-D (Abutilon theoprasti; 100 gai/ha): 90%
% activity, solo 2,4-D (Ambrosia elatior; AMBEL, 25 gai/ha, postemergence, 20 DAT): 45%
% activity, solo 2,4-D (Ipomoea hederacea; 25 gai/ha): 98%
% activity, solo 2,4-D (Ipomoea hederacea; 100 gai/ha): 98%
% activity, solo 2,4-D (Chenopodium album; 50 gai/ha, 20 DAT): 90%
% activity, solo 2,4-D (Chenopodium album; 100 gai/ha, 20 DAT): 90%
% activity, solo 2,4-D (Stellaria media; STEME, 25 gai/ha, postemergence): 0%
% activity, solo 2,4-D (Stellaria media; [1]): 0%
% activity, solo 2,4-D (Stellaria media; [2]): 30%
% activity, solo 2,4-D (Polygonum persicaria; POLPE, 25 gai/ha): 10%
% activity, solo 2,4-D (Polygonum persicaria; POLPE, 50 gai/ha): 40%
% activity, solo 2,4-D (Polygonum persicaria; POLPE, 100 gai/ha): 70%
% activity, solo 2,4-D (Polygonum convolvulus; POLCO, 25 gai/ha, postemergence): 30%
% activity, solo 2,4-D (Polygonum convolvulus; [3]): 40%
% activity, solo 2,4-D (Polygonum convolvulus; [4]): 70%
% activity, solo 2,4-D (Polygonum aviculare; 25 gai/ha): 10%
% activity, solo 2,4-D (Polygonum aviculare; 50 gai/ha): 98%
% activity, solo 2,4-D (Sinapis arvensis): 80%

Cc1cc(Cl)ccc1OCC(=O)O [MCPA]
% activity, solo MCPA (Conyza canadiensis; ERICA, 50 gai/ha, postemergence, 20 DAT): 60%
% activity, solo MCPA (Abutilon theoprasti; 50 gai/ha): 60%
% activity, solo MCPA (Abutilon theoprasti; 200 gai/ha): 75%
% activity, solo MCPA (Sorghum bicolor; SORVU, 200 gai/ha, postemergence, 20 DAT): 30%
% activity, solo MCPA (Ambrosia elatior; AMBEL, 50 gai/ha, postemergence, 20 DAT): 65%
% activity, solo MCPA (Ambrosia elatior; AMBEL, 100 gai/ha, postemergence, 20 DAT): 65%
% activity, solo MCPA (Ipomoea hederacea; 50 gai/ha): 98%
% activity, solo MCPA (Ipomoea hederacea; 100 gai/ha): 98%
% activity, solo MCPA (Ipomoea hederacea; 200 gai/ha): 98%
% activity, solo MCPA (Matricaria chamomilla; 50 gai/ha): 20%
% activity, solo MCPA (Matricaria chamomilla; 100 gai/ha): 30%
% activity, solo MCPA (Chenopodium album; 200 gai/ha, 20 DAT): 90%
% activity, solo MCPA (Stellaria media; [1]): 0%
% activity, solo MCPA (Stellaria media; [2]): 0%
% activity, solo MCPA (Stellaria media; STEME, 200 gai/ha, postemergence): 20%
% activity, solo MCPA (Polygonum persicaria; POLPE, 50 gai/ha): 20%
% activity, solo MCPA (Polygonum persicaria; POLPE, 200 gai/ha): 60%
% activity, solo MCPA (Polygonum persicaria; POPLE, 100 gai/ha): 35%
% activity, solo MCPA (Polygonum convolvulus; [3]): 0%
% activity, solo MCPA (Polygonum convolvulus; [4]): 0%
% activity, solo MCPA (Polygonum convolvulus; POLCO, 200 gai/ha, postemergence): 0%
% activity, solo MCPA (Polygonum aviculare; 50 gai/ha): 10%
% activity, solo MCPA (Polygonum aviculare; 100 gai/ha): 70%
% activity, solo MCPA (Polygonum aviculare; 200 gai/ha): 98%
% activity, solo MCPA (Amaranthus retroflexus; AMARE, 50 gai/ha, postemergence): 55%
% activity, solo MCPA (Amaranthus retroflexus; AMARE, 100 gai/ha, postemergence): 65%
% activity, solo MCPA (Amaranthus retroflexus; AMARE, 200 gai/ha, postemergence): 90%

Cc1ccc(NC(=O)N(C)C)cc1Cl [dicuran, Chlorotoluron]
inhibition at 62.5 g/ha (CONAR): 0%
inhibition at 62.5 g/ha (Conyza canadiensis; Conyza, post-emergence, ERICA, 62.5 gai/ha, postemergence, read-out: % activity, solo application dicuran): 75%
inhibition at 62.5 g/ha (Abutilon theoprasti; Abutilon, post-emergence, 62.5 gai/ha, read-out: % activity, solo application dicuran): 50%
inhibition at 62.5 g/ha (Ipomoea hederacea; Ipomoea hederacea, post-emergence, 62.5 gai/ha, read-out: % activity, solo application dicuran): 85%
inhibition at 62.5 g/ha (Matricaria chamomilla; Matricaria chamomilla, post-emergence, 62.5 gai/ha, read-out: % activity, solo application dicuran): 85%
inhibition at 62.5 g/ha (APESV): 0%
inhibition at 62.5 g/ha (Chenopodium album; Chenopodium album, post-emergence, 62.5 gai/ha, read-out: % activity, solo application dicuran): 90%
inhibition at 62.5 g/ha (AVEFA): 0%
inhibition at 62.5 g/ha (BROST): 0%
inhibition at 62.5 g/ha (Stellaria media; Stellaria media, post-emergence, STEME, 62.5 gai/ha, postemergence, read-out: % activity, solo application dicuran): 85%
inhibition at 62.5 g/ha (Setaria viridis): 0%
inhibition at 62.5 g/ha (ALOMY): 0%
inhibition at 62.5 g/ha (Galium aparine): 35%
inhibition at 62.5 g/ha (Polygonum convolvulus; Fallopia convolvulus, post-emergence, POLCO, 62.5 gai/ha, postemergence, read-out: % activity, solo application dicuran): 80%
inhibition at 62.5 g/ha (DIGSA): 0%
inhibition at 62.5 g/ha (Amaranthus retroflexus; Amaranthus retroflexus, post-emergence, AMARE, 62.5 gai/ha, postemergence, read-out: % activity, solo application dicuran): 60%

COc1nc(C)nc(=NC(=O)NS(=O)(=O)c2ccccc2C(=O)O)[nH]1 [metsulfuron, Metsulfuron]
inhibition at 0.5 g/ha (Conyza canadiensis; Conyza, post-emergence, 480 h, read-out: % activity, solo metsulfuron): 90%
inhibition at 0.5 g/ha (Sorghum bicolor; [5]): 20%
inhibition at 1 g/ha (Sorghum bicolor; [5]): 35%
inhibition at 0.25 g/ha (Ambrosia elatior; [6]): 0%
inhibition at 0.5 g/ha (Ambrosia elatior; [6]): 5%
inhibition at 1 g/ha (Ambrosia elatior; [6]): 98%
inhibition at 0.25 g/ha (Stellaria media; Stellaria media, post-emergence, 480 h, read-out: % activity, solo metsulfuron): 98%
inhibition at 0.5 g/ha (Polygonum persicaria; [7]): 95%
inhibition at 1 g/ha (Polygonum persicaria; [7]): 95%
inhibition at 0.5 g/ha (Polygonum convolvulus; [8]): 70%
inhibition at 1 g/ha (Polygonum convolvulus; [8]): 95%
inhibition at 1 g/ha (Amaranthus retroflexus; Amaranthus retroflexus, post-emergence, 480 h, read-out: % activity, solo metsulfuron): 95%
